In ChEMBL document CHEMBL2424622, “Development of amino-pyrimidine inhibitors of c-Jun N-terminal kinase (JNK): kinase profiling guided optimization of a 1,2,3-benzotriazole lead” (Bioorg Med Chem Lett, 2013):

Columns and labels:
[1] = molecular target: T1, Mitogen-activated protein kinase kinase kinase 5 (Homo sapiens) (UniProt Q99683); assay: Competitive binding affinity to MAP3K5 (unknown origin) at 10 uM in presence of ATP relative to control
T1 sequence (whole entry): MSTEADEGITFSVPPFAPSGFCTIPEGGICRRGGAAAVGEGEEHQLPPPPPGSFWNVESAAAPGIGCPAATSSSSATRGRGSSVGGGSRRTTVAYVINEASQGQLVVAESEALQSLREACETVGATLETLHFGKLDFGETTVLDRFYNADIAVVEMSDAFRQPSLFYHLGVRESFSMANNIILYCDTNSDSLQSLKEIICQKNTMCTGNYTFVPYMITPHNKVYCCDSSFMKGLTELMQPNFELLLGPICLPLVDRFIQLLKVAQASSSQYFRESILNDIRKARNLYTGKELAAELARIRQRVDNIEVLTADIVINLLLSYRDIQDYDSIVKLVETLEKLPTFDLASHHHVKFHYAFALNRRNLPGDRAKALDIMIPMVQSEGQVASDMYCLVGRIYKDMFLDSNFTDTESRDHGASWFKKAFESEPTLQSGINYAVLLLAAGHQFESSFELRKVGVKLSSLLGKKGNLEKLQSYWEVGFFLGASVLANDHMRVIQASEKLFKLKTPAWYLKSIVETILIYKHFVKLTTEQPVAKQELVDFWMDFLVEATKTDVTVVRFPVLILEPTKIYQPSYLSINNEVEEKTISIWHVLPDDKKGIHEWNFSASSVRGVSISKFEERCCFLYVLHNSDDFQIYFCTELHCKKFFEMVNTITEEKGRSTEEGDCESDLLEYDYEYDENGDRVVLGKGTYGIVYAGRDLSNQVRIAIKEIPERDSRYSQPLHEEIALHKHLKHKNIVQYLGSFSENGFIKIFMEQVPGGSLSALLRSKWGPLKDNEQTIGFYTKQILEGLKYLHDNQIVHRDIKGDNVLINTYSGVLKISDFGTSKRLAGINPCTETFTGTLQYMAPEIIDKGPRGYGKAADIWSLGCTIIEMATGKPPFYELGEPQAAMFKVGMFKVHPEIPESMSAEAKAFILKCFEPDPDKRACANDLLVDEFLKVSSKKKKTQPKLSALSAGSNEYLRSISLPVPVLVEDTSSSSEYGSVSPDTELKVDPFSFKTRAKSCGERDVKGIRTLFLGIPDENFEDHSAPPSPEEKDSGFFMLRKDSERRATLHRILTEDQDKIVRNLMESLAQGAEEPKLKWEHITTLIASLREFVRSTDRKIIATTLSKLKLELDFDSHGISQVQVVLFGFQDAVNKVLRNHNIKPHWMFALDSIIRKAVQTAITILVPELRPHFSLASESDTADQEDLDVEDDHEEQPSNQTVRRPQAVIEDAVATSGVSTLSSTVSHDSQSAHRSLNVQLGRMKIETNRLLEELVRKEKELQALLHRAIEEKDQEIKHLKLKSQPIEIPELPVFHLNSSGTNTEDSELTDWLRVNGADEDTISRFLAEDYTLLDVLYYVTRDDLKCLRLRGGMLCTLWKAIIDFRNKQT

Homo sapiens = species on record: Homo sapiens; assay: Competitive binding affinity to EGFR L747 to E749 deletion mutant, A750P mutant (unknown origin) at 10 uM in presence of ATP relative to control
[2] = molecular target: Dual specificity tyrosine-phosphorylation-regulated kinase 1B (Homo sapiens) (UniProt Q9Y463); assay: Competitive binding affinity to DYRK1B (unknown origin) at 10 uM in presence of ATP relative to control
Dual specificity tyrosine-phosphorylation-regulated kinase 1B (Homo sapiens), sequence (Q9Y463 whole entry, looked up, the tested form may be a part): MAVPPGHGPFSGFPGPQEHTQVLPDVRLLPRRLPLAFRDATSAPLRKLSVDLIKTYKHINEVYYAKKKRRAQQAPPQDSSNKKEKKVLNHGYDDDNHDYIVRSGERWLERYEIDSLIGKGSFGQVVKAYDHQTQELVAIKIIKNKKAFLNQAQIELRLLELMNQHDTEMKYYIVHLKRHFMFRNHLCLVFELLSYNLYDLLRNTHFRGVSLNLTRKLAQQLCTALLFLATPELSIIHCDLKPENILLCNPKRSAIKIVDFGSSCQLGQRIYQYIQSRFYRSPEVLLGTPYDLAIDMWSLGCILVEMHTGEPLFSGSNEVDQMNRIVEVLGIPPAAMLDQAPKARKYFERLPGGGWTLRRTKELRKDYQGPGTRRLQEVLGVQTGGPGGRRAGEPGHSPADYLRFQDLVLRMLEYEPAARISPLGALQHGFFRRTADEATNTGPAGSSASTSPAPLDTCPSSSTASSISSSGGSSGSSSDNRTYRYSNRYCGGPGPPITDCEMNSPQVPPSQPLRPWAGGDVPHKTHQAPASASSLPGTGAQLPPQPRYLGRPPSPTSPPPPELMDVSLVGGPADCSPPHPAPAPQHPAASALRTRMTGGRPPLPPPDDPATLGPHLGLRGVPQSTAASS

[3] = molecular target: T2, Ankyrin repeat and protein kinase domain-containing protein 1 (Homo sapiens) (UniProt Q8NFD2); assay: Competitive binding affinity to ANKK1 (unknown origin) at 10 uM in presence of ATP relative to control
T2 sequence (whole entry): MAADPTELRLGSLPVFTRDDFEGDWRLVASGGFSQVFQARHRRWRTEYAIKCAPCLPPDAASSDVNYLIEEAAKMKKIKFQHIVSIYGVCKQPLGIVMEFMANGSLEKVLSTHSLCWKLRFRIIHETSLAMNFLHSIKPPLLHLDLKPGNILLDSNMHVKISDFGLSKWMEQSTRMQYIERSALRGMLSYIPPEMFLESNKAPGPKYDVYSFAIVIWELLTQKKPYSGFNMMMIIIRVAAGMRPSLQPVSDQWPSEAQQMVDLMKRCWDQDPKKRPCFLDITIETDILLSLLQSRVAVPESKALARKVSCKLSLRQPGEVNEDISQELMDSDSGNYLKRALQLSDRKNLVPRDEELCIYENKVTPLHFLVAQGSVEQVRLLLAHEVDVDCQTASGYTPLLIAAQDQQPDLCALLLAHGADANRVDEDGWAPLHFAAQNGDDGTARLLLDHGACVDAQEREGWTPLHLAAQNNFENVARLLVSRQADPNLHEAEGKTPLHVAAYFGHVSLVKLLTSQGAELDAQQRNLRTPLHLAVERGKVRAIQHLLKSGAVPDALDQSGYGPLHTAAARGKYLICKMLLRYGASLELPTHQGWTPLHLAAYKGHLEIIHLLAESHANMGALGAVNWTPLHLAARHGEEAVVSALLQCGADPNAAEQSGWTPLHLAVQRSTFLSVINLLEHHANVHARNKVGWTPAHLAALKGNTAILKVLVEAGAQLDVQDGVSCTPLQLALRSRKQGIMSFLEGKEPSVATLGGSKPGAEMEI

[4] = system: Tyrosine-protein kinase ABL1 (Homo sapiens), P00519 [M351T]; assay: Competitive binding affinity to ABL1 M351T mutant (unknown origin) at 10 uM in presence of ATP relative to control
[5] = molecular target: T3, Myosin light chain kinase family member 4 (Homo sapiens) (UniProt Q86YV6); assay: Competitive binding affinity to SgK085 (unknown origin) at 10 uM in presence of ATP relative to control
T3 sequence (whole entry): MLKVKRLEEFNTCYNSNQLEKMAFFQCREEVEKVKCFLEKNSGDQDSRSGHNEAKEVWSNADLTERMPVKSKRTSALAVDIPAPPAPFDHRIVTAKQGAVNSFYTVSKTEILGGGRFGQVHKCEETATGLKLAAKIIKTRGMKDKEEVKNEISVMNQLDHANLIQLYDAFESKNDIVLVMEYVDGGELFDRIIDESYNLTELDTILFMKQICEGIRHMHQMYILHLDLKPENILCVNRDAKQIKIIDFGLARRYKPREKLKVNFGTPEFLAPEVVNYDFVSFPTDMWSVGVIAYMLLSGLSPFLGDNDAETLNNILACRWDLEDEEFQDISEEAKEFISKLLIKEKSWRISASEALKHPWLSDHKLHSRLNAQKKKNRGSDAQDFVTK

[6] = molecular target: Ribosomal protein S6 kinase alpha-6 (Homo sapiens) (UniProt Q9UK32); assay: Competitive binding affinity to RPS6KA6 kinase domain 1 (unknown origin) at 10 uM in presence of ATP relative to control
Ribosomal protein S6 kinase alpha-6 (Homo sapiens), sequence (Q9UK32 whole entry, the tested form may be a part): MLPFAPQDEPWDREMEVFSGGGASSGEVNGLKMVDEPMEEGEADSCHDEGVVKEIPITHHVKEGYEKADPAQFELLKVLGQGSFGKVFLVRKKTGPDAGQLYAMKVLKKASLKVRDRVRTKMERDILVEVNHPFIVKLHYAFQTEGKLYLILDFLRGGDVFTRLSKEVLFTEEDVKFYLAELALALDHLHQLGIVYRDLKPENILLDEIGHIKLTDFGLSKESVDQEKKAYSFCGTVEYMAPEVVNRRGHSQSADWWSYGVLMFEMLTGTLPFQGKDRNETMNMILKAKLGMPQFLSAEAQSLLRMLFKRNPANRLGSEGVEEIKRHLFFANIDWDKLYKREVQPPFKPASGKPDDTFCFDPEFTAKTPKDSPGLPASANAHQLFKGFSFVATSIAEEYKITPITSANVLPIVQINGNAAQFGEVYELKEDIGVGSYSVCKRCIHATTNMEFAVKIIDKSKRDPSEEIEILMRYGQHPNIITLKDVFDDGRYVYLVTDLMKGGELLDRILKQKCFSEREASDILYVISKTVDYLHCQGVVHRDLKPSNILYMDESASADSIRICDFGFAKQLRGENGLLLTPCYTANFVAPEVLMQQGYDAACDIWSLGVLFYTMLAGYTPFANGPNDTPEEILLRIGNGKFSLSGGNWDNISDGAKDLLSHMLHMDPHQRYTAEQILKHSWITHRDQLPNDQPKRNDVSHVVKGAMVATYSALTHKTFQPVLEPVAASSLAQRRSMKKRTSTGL

[7] = molecular target: Cyclin-dependent kinase 18 (Homo sapiens) (UniProt Q07002); assay: Competitive binding affinity to PCTK3 (unknown origin) at 10 uM in presence of ATP relative to control
Cyclin-dependent kinase 18 (Homo sapiens), sequence (Q07002 whole entry): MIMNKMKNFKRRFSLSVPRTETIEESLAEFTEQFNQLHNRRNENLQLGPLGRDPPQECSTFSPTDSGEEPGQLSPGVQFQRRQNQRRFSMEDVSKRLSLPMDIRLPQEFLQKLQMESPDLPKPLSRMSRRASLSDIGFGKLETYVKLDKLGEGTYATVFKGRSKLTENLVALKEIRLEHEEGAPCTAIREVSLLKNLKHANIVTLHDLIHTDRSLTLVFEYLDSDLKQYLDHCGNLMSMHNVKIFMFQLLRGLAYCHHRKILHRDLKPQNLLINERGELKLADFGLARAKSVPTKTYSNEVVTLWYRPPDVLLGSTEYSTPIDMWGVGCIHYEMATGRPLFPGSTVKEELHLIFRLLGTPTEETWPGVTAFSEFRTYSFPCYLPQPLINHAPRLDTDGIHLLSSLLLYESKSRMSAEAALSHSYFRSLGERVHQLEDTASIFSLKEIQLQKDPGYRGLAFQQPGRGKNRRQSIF

Compound | inhibition [1] | inhibition (Homo sapiens) | inhibition [2] | inhibition [3] | inhibition [4] | inhibition [5] | inhibition [6] | inhibition [7]
O[C@H]1CC[C@H](Nc2nccc(-n3ccc4ccccc43)n2)CC1 | < 50% | < 50% | 100% | < 50% | < 50% | 98% | < 50% | < 50%
O[C@H]1CC[C@H](Nc2nccc(-c3n[nH]c4ccccc34)n2)CC1 | – | < 50% | – | – | < 50% | – | 79% | –
CS(=O)(=O)CCCOc1cccc2c1ccn2-c1ccnc(N[C@H]2CC[C@H](C(=O)N3CCC(O)CC3)CC2)n1 | – | – | – | – | – | > 85% | – | –

Next, values leading:

inhibition [1] | inhibition (Homo sapiens) | inhibition [2] | inhibition [3] | inhibition [4] | inhibition [5] | inhibition [6] | inhibition [7] | Compound
< 50% | < 50% | 99% | < 50% | < 50% | 96% | < 50% | < 50% | O[C@H]1CC[C@H](Nc2nccc(-n3ncc4ccccc43)n2)CC1
< 50% | < 50% | 100% | 69% | < 50% | 97% | < 50% | < 50% | O[C@H]1CC[C@H](Nc2nccc(-n3nnc4ccccc43)n2)CC1
